Measurements as given in US11999707B1, “N′-(2-(5-(4-chlorophenyl)-1,3,4-oxadiazol-2-ylthio)acetoxy)-1-naphthimidamide as an antimicrobial compound” (KING FAISAL UNIVERSITY, priority 2023, dated 2024).

Legend:
Type in all cases: cell-based
[1] = test system: Pseudomonas aeruginosa; test: Agar plate disc-diffusion, antibacterial, Pseudomonas aeruginosa; conditions: Gram negative
Protocol: (§1) The agar plate disc-diffusion method was applied. […] The discs were then placed onto the surface of agar plates (nutrient agar for bacteria and Sabouraud's dextrose agar for fungi) seeded with the test organism. Each plate contained 15 mL of the agar medium, previously seeded with 0.2 mL of the broth culture of each organism pregrown for 18 hours. The plates were incubated at 37° C. for 48 hours and 72 hours for fungi. The inhibition zones were measured in mm. Discs impregnated with DMSO were used as a control, and their inhibition zone was subtracted from the tested compound's actual inhibition zone.

[2] = test system: Escherichia coli; test: Agar plate disc-diffusion, antibacterial, Escherichia coli; conditions: Gram negative
Protocol: as §1

[3] = test system: Staphylococcus aureus; test: Agar plate disc-diffusion, antibacterial, Staphylococcus aureus; conditions: Gram positive
Protocol: as §1

[4] = test system: Bacillus cereus; test: Agar plate disc-diffusion, antibacterial, Bacillus cereus; conditions: Gram positive
Protocol: as §1

[5] = test system: Aspergillus flavus; test: Agar plate disc-diffusion, antifungal, Aspergillus flavus; conditions: Fungal
Protocol: as §1

[6] = test system: Chrysosporium keratinophilum; test: Agar plate disc-diffusion, antifungal, Chrysosporium keratinophilum; conditions: Fungal
Protocol: as §1

[7] = A = concentration of comp. = 10,000 μL
[8] = B = concentration of comp. = 30,000 μL
[9] = C = concentration of comp. = 50,000 μL

SMILES: N/C(=N\OC(=O)CSc1nnc(-c2ccc(Cl)cc2)o1)c1cccc2ccccc12 [compound 3, N′-(2-(5-(4-chlorophenyl)-1,3,4-oxadiazol-2-ylthio)acetoxy)-1-naphthimidamide]
- inhibition zone, Pseudomonas aeruginosa, A [1, 7]: 26 mm
- inhibition zone, Pseudomonas aeruginosa, B [1, 8]: 28 mm
- inhibition zone, Pseudomonas aeruginosa, C [1, 9]: 45 mm
- inhibition zone, Escherichia coli, A [2, 7]: 26 mm
- inhibition zone, Escherichia coli, B [2, 8]: 32 mm
- inhibition zone, Escherichia coli, C [2, 9]: 50 mm
- inhibition zone, Staphylococcus aureus, A [3, 7]: 27 mm
- inhibition zone, Staphylococcus aureus, B [3, 8]: 30 mm
- inhibition zone, Staphylococcus aureus, C [3, 9]: 38 mm
- inhibition zone, Bacillus Cereus, A [4, 7]: 22 mm
- inhibition zone, Bacillus Cereus, B [4, 8]: 25 mm
- inhibition zone, Bacillus Cereus, C [4, 9]: 34 mm
- inhibition zone, Aspergillus flavus, A [5, 7]: 24 mm
- inhibition zone, Aspergillus flavus, B [5, 8]: 27 mm
- inhibition zone, Aspergillus flavus, C [5, 9]: 36 mm
- inhibition zone, Chrysosporium keratinophilum, A [6, 7]: 22 mm
- inhibition zone, Chrysosporium keratinophilum, B [6, 8]: 28 mm
- inhibition zone, Chrysosporium keratinophilum, C [6, 9]: 39 mm
